From article PMC7577125 (Antimicrobial Agents and Chemotherapy, 2020)
Where “and” joins values, the source holds several entries; their conditions need not be identical. Equal values may be shown once. Read-outs that look alike come from different tables or passages of the source.

How the values were obtained:
[1] = test system: HBV (genotype D, subtype ayw); experiment: HBV replication assay in HepAD38 cells; format: cell-based, Hepatitis B virus; settings: Hepatitis B virus
HBV [2] = experiment: microbe, parasite or virus in culture; settings: Hepatitis B virus
HBV [3] = test system: HBV; parameters: method as in PMID 31711752; settings: HBeAg-negative patient, day 28 of monotherapy; cited from earlier work
[4] = test system: HBV genotypes A, B, C, and D; experiment: microbe, parasite or virus in culture; format: cell-based; settings: Hepatitis B virus, read-out: VR EC50s
HBV Cp T33N = experiment: microbe, parasite or virus in culture; format: cell-based, Hepatitis B virus
HBV capsid DNA = experiment: Incoming capsid assay in PHH cells; format: cell-based; settings: Hepatitis B virus, 3 h, read-out: Capsid DNA % of Control
HBV genotype A = experiment: microbe, parasite or virus in culture; format: cell-based; settings: Hepatitis B virus, read-out: Mean antiviral EC50
HBV genotype B = experiment: microbe, parasite or virus in culture; format: cell-based; settings: Hepatitis B virus, read-out: Mean antiviral EC50
HBV cccDNA = experiment: cccDNA formation assay in infected HepG2-NTCP cells (Southern blot); format: cell-based; settings: Hepatitis B virus, 96 h, 4 days, read-out: cccDNA % of Control
HBV genotype D = experiment: microbe, parasite or virus in culture; format: cell-based; settings: Hepatitis B virus, read-out: Mean antiviral EC50
HBV Cp P25A = experiment: microbe, parasite or virus in culture; format: cell-based, Hepatitis B virus
in vitro [5] = settings: human, plasma
in vitro [6] = settings: human
HBV Cp Y38C = experiment: microbe, parasite or virus in culture; format: cell-based, Hepatitis B virus
HBV Cp T109M = experiment: microbe, parasite or virus in culture; format: cell-based, Hepatitis B virus
HBV [7] = experiment: HBV RNA/DNA analyses in induced HepAD38 cells (Northern/Southern blot); format: cell-based, Hepatitis B virus; settings: for activity at 2 µM: Hepatitis B virus, HePAD38
CYP1A2 = CYP1A2 (Homo sapiens, UniProt P05177); experiment: biochemical
Chain of CYP1A2 (P05177 whole entry): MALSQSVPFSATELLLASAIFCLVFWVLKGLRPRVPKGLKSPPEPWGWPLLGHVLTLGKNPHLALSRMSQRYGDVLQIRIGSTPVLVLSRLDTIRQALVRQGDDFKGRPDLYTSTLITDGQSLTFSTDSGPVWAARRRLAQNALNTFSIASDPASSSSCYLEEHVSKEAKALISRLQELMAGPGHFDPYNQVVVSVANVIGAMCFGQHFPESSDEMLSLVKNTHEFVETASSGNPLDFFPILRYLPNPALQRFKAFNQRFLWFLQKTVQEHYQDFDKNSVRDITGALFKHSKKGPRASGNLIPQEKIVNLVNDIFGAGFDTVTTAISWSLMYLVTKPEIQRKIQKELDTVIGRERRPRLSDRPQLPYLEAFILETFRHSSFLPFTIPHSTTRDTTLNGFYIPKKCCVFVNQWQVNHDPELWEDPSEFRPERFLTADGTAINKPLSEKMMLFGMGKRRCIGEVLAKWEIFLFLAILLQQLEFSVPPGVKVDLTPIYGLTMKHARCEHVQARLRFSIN

[8] = in vivo
HBV [9] = experiment: Extracellular HBV DNA and pgRNA in HepAD38 cells (qPCR, RT-qPCR); format: cell-based, Hepatitis B virus
From the text: For HBV RNA Northern blot analysis, total cellular RNA or encapsidated pgRNA samples were resolved in a 1.5% agarose gel containing 2.2 M formaldehyde and transferred onto a Hybond-XL membrane (GE Healthcare). For DNA Southern blot analysis, HBV core DNA or cccDNA samples were resolved by electrophoresis in a 1.2% agarose gel and blotted onto a Hybond-XL membrane. Membranes were probed with either an [α-^32P]UTP (3,000 Ci/mmol; PerkinElmer)-labeled plus-strand-specific (for Northern blot hybridization) or minus-strand-specific (for Southern blot hybridization) HBV riboprobe and exposed to a phosphorimager screen. Extracellular HBV DNA and RNA were copurified from the culture medium of induced HepAD38 cells by using a MinElute virus vacuum kit (Qiagen). Viral DNA was quantified using the above-mentioned qPCR method directly, and HBV RNA was detected by RT-qPCR with the same core region primer/probe set after the removal of DNA contamination by DNase I (Thermo Fisher) treatment.

CYP2C19 = biological target: T1, CYP2C19 (Homo sapiens, UniProt P33261); experiment: CYP inhibition in human liver microsomes, 2C19; format: in vitro ADME; settings: 0.1–100 μM
T1 construct: in human liver microsomes; from tissue; host or cells: human liver microsomes
T1 sequence (P33261 whole entry): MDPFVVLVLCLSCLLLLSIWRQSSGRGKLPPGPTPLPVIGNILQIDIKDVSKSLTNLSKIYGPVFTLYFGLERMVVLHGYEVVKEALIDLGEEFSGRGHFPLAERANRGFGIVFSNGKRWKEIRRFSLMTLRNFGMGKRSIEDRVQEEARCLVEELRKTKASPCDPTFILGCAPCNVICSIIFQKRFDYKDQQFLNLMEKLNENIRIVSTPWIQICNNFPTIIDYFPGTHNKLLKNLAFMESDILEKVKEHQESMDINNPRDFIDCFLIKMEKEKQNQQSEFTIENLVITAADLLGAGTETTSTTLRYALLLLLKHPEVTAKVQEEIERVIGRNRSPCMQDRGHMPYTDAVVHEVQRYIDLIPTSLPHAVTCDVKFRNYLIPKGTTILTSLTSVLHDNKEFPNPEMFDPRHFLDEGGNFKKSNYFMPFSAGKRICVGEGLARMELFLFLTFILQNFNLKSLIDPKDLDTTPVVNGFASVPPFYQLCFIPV

[10] = human, rat, cynomolgus monkey
Experimental: In vitro intrinsic clearance (CLint) was determined as follows. […] The calculated CLint was determined from the relationship CLint = k × (volume of incubation in ml/mg microsomal protein) × (mg protein in liver/g liver weight) × (g liver weight/kg body weight). The values for liver weights, body weights, as well as hepatic blood flows (QH) across species were obtained from data reported previously by Davies and Morris ([28]). Values for liver microsome protein/liver weight for mouse, rat, dog, and monkey were […] ([27]), and that for human was 33 mg/g. The calculation used for the prediction of hepatic clearance (CLpred) is CLpred = (QH × CLint)/(QH + CLint).

CYP2D6 = biological target: T2, CYP2D6 (Homo sapiens, UniProt P10635); experiment: CYP inhibition in human liver microsomes, 2D6; format: in vitro ADME; settings: 0.1–100 μM
T2 construct: in human liver microsomes; from tissue; host or cells: human liver microsomes
T2 sequence (P10635 whole entry): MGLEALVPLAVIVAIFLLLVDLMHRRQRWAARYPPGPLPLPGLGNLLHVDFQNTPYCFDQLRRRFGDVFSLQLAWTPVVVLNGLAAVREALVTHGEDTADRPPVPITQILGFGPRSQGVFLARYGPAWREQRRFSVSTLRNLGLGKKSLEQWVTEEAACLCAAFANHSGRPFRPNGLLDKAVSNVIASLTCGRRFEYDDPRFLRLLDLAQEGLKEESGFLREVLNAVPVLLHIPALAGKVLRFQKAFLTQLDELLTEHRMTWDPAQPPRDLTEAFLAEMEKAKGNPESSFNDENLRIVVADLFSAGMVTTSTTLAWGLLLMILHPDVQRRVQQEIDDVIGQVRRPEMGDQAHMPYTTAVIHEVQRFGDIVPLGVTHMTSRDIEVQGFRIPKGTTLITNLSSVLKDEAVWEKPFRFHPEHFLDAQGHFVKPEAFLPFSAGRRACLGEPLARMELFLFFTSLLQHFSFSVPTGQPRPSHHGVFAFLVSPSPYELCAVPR

[11] = Hepatitis B virus, Huh-7, read-out: Mean EC50
[12] = HepAD38, concn ETV 0.01, ABI-H0731 2.0, GLS4 0.5, NVR 3-778 2.5, AT-130 0.8, VRD-32 0.8 μM

**Q.** With O=C(NCc1cnc(C(F)(F)F)s1)c1ccc2c(c1)NC(=O)c1ccccc1S2(=O)=O [ABI-H0731] as the compound, how does the EC50 ([1]; HePAD38, HepAD38, concomitantly determined with HepG2-NrtI^R, read-out: Mean EC50) read?
**A.** The EC50 was 221 ± 19 nM.

**Q.** And the EC50 ([1]; HePAD38, HepAD38, total intracellular viral DNA, read-out: Mean EC50, viral DNA)?
**A.** The EC50 was 173 ± 40 nM.

**Q.** What about the EC50 (HBV [2]; HePAD38, HepAD38, 2% HPL) of the same compound?
**A.** Its EC50 is 200 ± 5 nM.

**Q.** And the EC50 (HBV [2]; HePAD38, HepAD38, 20% HPL)?
**A.** Its EC50 is 522 ± 40 nM.

**Q.** And the “decline in viral load in a patient harboring T109M at baseline” value (HBV [3])?
**A.** Its value is 1.0 log and 1 log.

**Q.** And the EC50 [4]?
**A.** Its EC50 is 86 to 142 nM.

**Q.** What about the EC50 (HBV Cp T33N; [11]) of the same compound?
**A.** The EC50 was 3.06 µM.

**Q.** What about the Fold shift (HBV Cp T33N; T33N vs wild type) of the same compound?
**A.** Its Fold shift is 21 fold.

**Q.** What about the activity at […] (HBV capsid DNA; 0.37 μM) of the same compound?
**A.** The activity at […] was 71%.

**Q.** What about the activity at 1.11 µM (HBV capsid DNA; 1.11 μM) of the same compound?
**A.** Its activity at 1.11 µM is 60%.

**Q.** What about the activity at 3.33 µM (HBV capsid DNA; 3.33 μM) of the same compound?
**A.** Its activity at 3.33 µM is 32%.

**Q.** What about the activity at 10 µM (HBV capsid DNA; 10.0 μM) of the same compound?
**A.** The activity at 10 µM was 9%.

**Q.** And the EC50 (HBV genotype A)?
**A.** Its EC50 is 113 ± 22 nM.

**Q.** What about the EC50 (HBV genotype B) of the same compound?
**A.** The EC50 was 85.5 ± 10.9 nM.

**Q.** What about the activity at 0.04 µM (HBV cccDNA; 0.04 μM) of the same compound?
**A.** Its activity at 0.04 µM is 89%.

**Q.** And the activity at 0.12 µM (HBV cccDNA; 0.12 μM)?
**A.** Its activity at 0.12 µM is 95%.

**Q.** And the activity at […] (HBV cccDNA; 0.37 μM)?
**A.** Its activity at […] is 98%.

**Q.** And the activity at 1.11 µM (HBV cccDNA; 1.11 μM)?
**A.** Its activity at 1.11 µM is 94%.

**Q.** And the activity at 3.33 µM (HBV cccDNA; 3.33 μM)?
**A.** The activity at 3.33 µM was 86%.

**Q.** And the activity at 10 µM (HBV cccDNA; 10.0 μM)?
**A.** Its activity at 10 µM is 30%.

**Q.** And the EC50 (HBV genotype D)?
**A.** Its EC50 is 142 ± 48 nM.

**Q.** And the EC50 (HBV Cp P25A; [11])?
**A.** The EC50 was 169 ± 41 nM.

**Q.** And the Fold shift (HBV Cp P25A; P25A vs wild type)?
**A.** Its Fold shift is 1.2 fold.

**Q.** And the fraction unbound at 6 h, 3 μM (in vitro [5])?
**A.** Its fraction unbound at 6 h, 3 μM is 0.031.

**Q.** What about the fraction unbound at 6 h, 10 μM (in vitro [5]) of the same compound?
**A.** Its fraction unbound at 6 h, 10 μM is 0.034.

**Q.** And the fraction unbound at 6 h, 30 μM (in vitro [5])?
**A.** The fraction unbound at 6 h, 30 μM was 0.024.

**Q.** And the recovery at 4 days, 10 μM (in vitro [6])?
**A.** The recovery at 4 days, 10 μM was 67 to 84%.

**Q.** What about the EC50 (HBV Cp Y38C; [11]) of the same compound?
**A.** Its EC50 is 224 ± 50 nM.

**Q.** What about the Fold shift (HBV Cp Y38C; Y38C vs wild type) of the same compound?
**A.** Its Fold shift is 1.5 fold.

**Q.** And the EC50 (HBV Cp T109M; [11])?
**A.** Its EC50 is greater than 10 µM.

**Q.** What about the Fold shift (HBV Cp T109M; T109M vs wild type) of the same compound?
**A.** The Fold shift was greater than 68 fold.

**Q.** And the “Levels of encapsidated pgRNA by Northern blotting” value (HBV [7]; HepAD38, 10-fold over VR EC50)?
**A.** Its value is “virtually undetectable”.

**Q.** What about the “rcDNA detection by Southern blot” value (HBV [7]; HepAD38, 10-fold over VR EC50) of the same compound?
**A.** The value was “could not be detected”.

**Q.** And the activity at 2 µM (HBV [7]; read-out: Capsid DNA % of Control)?
**A.** The activity at 2 µM was 10%.

**Q.** What about the activity at 2 µM (HBV [7]; read-out: DNA % of Control (extracted HBV DNA replication intermediates)) of the same compound?
**A.** Its activity at 2 µM is 1%.

**Q.** And the activity at 2 µM (HBV [7]; read-out: Encapsidated pgRNA % of Control)?
**A.** The activity at 2 µM was 4%.

**Q.** And the IC50 (CYP1A2)?
**A.** Its IC50 is greater than 100 µM.

**Q.** And the “target organ or dose-limiting toxicities” value [8]?
**A.** The value was “no specific target organ or dose-limiting toxicities”.

**Q.** And the “secretion of HBV RNA and DNA in the culture medium” value (HBV [9]; HepAD38, 10-fold over VR EC50)?
**A.** The value was ≤ 3 % of the DMSO control.

**Q.** What about the “Extracellular DNA content (% of DMSO control)” value (HBV [9]; [12]) of the same compound?
**A.** Its value is 1.4 % of DMSO control.

**Q.** What about the “Extracellular pgRNA content (% of DMSO control)” value (HBV [9]; [12]) of the same compound?
**A.** The value was 3.1 % of DMSO control.

**Q.** What about the IC50 (CYP2C19) of the same compound?
**A.** The IC50 was 42.8 µM.

**Q.** And the “CLpred as % of liver blood flow” value ([10]; mouse, 0.5 μM)?
**A.** Its value is 12-21%.

**Q.** And the CLpred ([10]; 1 μM)?
**A.** Its CLpred is 2.3 to 21 mL/min/kg.

**Q.** What about the “CLpred as % of liver blood flow” value ([10]; 1 μM) of the same compound?
**A.** Its value is 11-32%.

**Q.** What about the IC50 (CYP2D6) of the same compound?
**A.** Its IC50 is 29.6 µM.
